Measured values as given in article PMC12316308, “Interactions of substrates and phosphinyl containing inhibitors with bacterial and human zinc proteases” (PLOS One, 2025).
Values joined by “and” are separate entries in the source; they are usually repeats but may differ in a detail not shown here. Equal entries are not always repeated. Where two headings read alike, the source gives them in different places.

What was measured:
[1] = target: T1, Mag-Trypsin activated MMP-9 (MMP-9(MT)) (Homo sapiens, UniProt P14780); test: Enzyme inhibition kinetics, fluorogenic substrate ES001; format: biochemical; conditions: for remaining activity at 100 µM: 100 µM inhibitor; for vi/v0: Mag-Trypsin activated recombinant human MMP-9, v0 = average of vi at 10-10 to 10-8 M H2
T1 construct: made in house; host or cells: Sf9 and High Five insect cells
T1 sequence (P14780 107-707 limits assumed): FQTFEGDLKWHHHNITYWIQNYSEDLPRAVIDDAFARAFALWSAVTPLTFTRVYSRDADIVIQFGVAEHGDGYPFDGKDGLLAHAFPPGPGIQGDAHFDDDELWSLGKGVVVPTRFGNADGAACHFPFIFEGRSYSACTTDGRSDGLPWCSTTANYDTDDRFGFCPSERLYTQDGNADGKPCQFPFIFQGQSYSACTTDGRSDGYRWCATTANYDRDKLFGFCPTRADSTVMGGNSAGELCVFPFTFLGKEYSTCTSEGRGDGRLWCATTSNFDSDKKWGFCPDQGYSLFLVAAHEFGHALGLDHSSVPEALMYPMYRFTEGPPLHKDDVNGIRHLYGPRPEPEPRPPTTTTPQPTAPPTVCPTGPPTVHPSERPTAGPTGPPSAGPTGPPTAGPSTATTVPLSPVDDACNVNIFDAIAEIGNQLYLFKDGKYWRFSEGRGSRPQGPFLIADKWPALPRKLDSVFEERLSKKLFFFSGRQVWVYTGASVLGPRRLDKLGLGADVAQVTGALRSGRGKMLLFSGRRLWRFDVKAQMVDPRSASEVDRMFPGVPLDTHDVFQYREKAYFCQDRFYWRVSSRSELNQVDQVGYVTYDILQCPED

[2] = target: T2, APMA activated MMP-9 (MMP-9(A)) (Homo sapiens, UniProt P14780); test: as above; format: biochemical; conditions: for remaining activity at 10 µM: 10 µM inhibitor
T2 construct: made in house; host or cells: Sf9 and High Five insect cells
T2 sequence (P14780 107-707 limits assumed): as above
Method in brief: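 Recombinant full-length proMMP-9 expressed in insect cells was auto-activated with APMA and titrated with galardin. Activity at 0.05 nM enzyme was measured using 4.0 µM fluorogenic substrate ES001 in 100 µL 0.1 M Hepes pH 7.5 containing 10 mM CaCl2, 0.005% Brij-35 and 1.0% DMSO. Initial rates were followed at 37°C (excitation 320 nm, emission 405 nm) relative to inhibitor-free controls.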

[3] = target: T3, human MT1-MMP/MMP-14 (catalytic domain) (Homo sapiens, UniProt P50281); test: as above; format: biochemical; conditions: for remaining activity at 10 µM: 10 µM inhibitor
T3 construct: human MT1-MMP/MMP-14 (catalytic domain); purchased Calbiochem (San Diego, CA, USA)

[4] = target: MMP-9; conditions: previously reported; cited from earlier work
[5] = target: T4, thermolysin (TLN) (Bacillus thermoproteolyticus, UniProt P00800); test: Enzyme inhibition kinetics, fluorogenic substrate ES005; format: biochemical; conditions: for remaining activity at 10 µM: log [H2] (M) -5; for remaining activity at 0.1 µM: log [H2] (M) -7; for remaining activity at 0.01 µM: log [H2] (M) -8; for remaining activity at 0.0001 µM: log [H2] (M) -10; for vi/v0 avg (time dependent inhibition, Supplementary Figure S8): Thermolysin, inhibitor 10 µM
T4 construct: purchased Calbiochem (San Diego, CA, USA)
T4 sequence (P00800 233-548): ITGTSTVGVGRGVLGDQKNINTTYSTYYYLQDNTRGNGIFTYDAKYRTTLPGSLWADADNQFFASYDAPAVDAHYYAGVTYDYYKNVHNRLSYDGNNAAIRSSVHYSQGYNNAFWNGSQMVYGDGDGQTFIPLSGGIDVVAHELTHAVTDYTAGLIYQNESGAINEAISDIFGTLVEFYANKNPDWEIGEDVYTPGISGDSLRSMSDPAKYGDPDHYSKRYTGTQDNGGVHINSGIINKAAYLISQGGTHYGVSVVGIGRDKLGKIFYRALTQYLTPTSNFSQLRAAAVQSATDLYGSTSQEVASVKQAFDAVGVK
Method in brief: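 Initial rates were read at 37 °C (ex 320/em 405 nm) with 4.0 µM substrate, ES001 for MMP-14 (1.0 nM) and ES005 for PLN (0.5 nM), TLN (0.21 nM), ALN (1.4 nM), in pH 7.5 Hepes, 10 mM CaCl2, 0.005% Brij-35, 1.0% DMSO. Enzymes were preincubated 30 min at room temperature or not; IC50 fitted, Ki from IC50 using Km.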

[6] = target: T5, aureolysin (ALN) (Staphylococcus aureus, UniProt P81177); test: as above; format: biochemical; conditions: for remaining activity at 100 µM: 100 µM inhibitor
T5 construct: purchased BioCentrum Ltd (Kraków, Poland)
T5 sequence (P81177 209-509): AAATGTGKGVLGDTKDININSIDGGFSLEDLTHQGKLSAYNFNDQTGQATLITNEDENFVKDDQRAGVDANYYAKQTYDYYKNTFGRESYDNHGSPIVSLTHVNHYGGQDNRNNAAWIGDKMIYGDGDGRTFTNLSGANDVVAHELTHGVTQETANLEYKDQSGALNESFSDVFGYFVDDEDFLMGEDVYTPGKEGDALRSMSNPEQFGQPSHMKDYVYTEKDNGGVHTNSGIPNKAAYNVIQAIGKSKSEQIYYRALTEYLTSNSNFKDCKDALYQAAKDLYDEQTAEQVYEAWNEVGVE

[7] = target: T6, pseudolysin (PLN, LasB) (Pseudomonas aeruginosa, UniProt P14756); test: as above; format: biochemical; conditions: for remaining activity at 100 µM: 100 µM inhibitor
T6 construct: purchased Calbiochem (San Diego, CA, USA)
T6 sequence (P14756 198-498): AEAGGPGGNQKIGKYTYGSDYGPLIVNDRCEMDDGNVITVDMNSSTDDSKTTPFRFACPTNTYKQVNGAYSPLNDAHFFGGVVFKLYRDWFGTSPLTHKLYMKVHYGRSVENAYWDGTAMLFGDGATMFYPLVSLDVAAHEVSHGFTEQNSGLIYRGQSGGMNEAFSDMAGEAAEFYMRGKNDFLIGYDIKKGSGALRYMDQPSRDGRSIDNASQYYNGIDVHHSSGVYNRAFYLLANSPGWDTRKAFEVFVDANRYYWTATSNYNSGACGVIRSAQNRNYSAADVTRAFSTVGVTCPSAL

[8] = target: MMP-14; conditions: cited from earlier work
[9] = TLN, log [H2] (M) -4, replicates
[10] = TLN, replicates, read-out: vi/v0 before correction of kurve
[11] = TLN, replicates, read-out: vi/v0 corrected (v0 is the average of log -10 to log -7)

## NC(=O)C(Cc1c[nH]c2ccccc12)NC(=O)C(CCCc1ccccc1)CP(=O)(O)C(Cc1ccccc1)NC(=O)OCc1ccccc1 (centres unmarked) [H-2]
[1]; 0.25 h, read-out: vi/v0 avg, rMMP-9 (Mag-trypsin activated), 15 min pre incubation
  remaining activity at 100 µM: 1.53%
[1]; 0.5 h, read-out: vi/v0 (single replicate), rMMP-9 (Mag-trypsin activated), 30 min pre incubation
  remaining activity at 100 µM: 1.66%
[1]; 0.5 h, read-out: vi/v0 avg, rMMP-9 (Mag-trypsin activated), 30 min pre incubation
  remaining activity at 100 µM: 1.41%
[1]; MMP-9(MT), 100 μM compound, in words
  inhibitory effect on enzymatic activity: strong inhibition
[1]; MMP-9(MT), substrate ES001 4.0 µM, 0.1 M Hepes pH 7.5, 37°C, 1.0% DMSO, Ki from IC50 (Eqn. 3), read-out: Ki ± s.d. (converted)
  Ki: 530 nM
[1]; Log [H2] (M) -4
  vi/v0: 0.01838 and 0.0265 and 0.01864 and 0.01609
[1]; Log [H2] (M) -5
  vi/v0: 0.1569 and 0.1424 and 0.1393 and 0.1595
[1]; Log [H2] (M) -6
  vi/v0: 0.5598 and 0.5376 and 0.5583 and 0.5906
[1]; Log [H2] (M) -7
  vi/v0: 0.8621 and 0.7854 and 0.9893
[1]; Log [H2] (M) -8
  vi/v0: 0.9994 and 0.9899 and 0.9629
[1]; Log [H2] (M) -9
  vi/v0: 0.9775 and 0.9856 and 0.9448
[1]; Log [H2] (M) -10
  vi/v0: 1.053 and 1.045 and 1.043
[1]; rMMP-9 (Mag-trypsin activated), inhibitor 100 μM, average over 0, 15, 30 min preincubation
  vi/v0 Av (bar diagram figure 7): 0.01565
[1]; rMMP-9 (Mag-trypsin activated), inhibitor 100 μM, preincubation 0 min
  vi/v0 (relative enzyme activity with inhibitor), single determinations: 0.01777 and 0.01586 and 0.01778 and 0.01563
[1]; rMMP-9 (Mag-trypsin activated), inhibitor 100 μM, preincubation 30 min
  vi/v0 (relative enzyme activity with inhibitor), single determinations: 0.01655 and 0.01171
[1]; read-out: vi/v0 (single replicate), rMMP-9 (Mag-trypsin activated), no preincubation
  remaining activity at 100 µM: 1.78%
[1]; read-out: vi/v0 avg, rMMP-9 (Mag-trypsin activated), no preincubation
  remaining activity at 100 µM: 1.68%
[2]; 0.25 h, read-out: vi/v0 (single replicate), rMMP-9 (APMA activated), 15 min pre incubation
  remaining activity at 10 µM: 2.55%
[2]; 0.25 h, read-out: vi/v0 avg, rMMP-9 (APMA activated), 15 min pre incubation
  remaining activity at 10 µM: 2.28%
[2]; 0.5 h, read-out: vi/v0 (single replicate), rMMP-9 (APMA activated), 30 min pre incubation
  remaining activity at 10 µM: 1.79%
[2]; 0.5 h, read-out: vi/v0 avg, rMMP-9 (APMA activated), 30 min pre incubation
  remaining activity at 10 µM: 1.99%
[2]; MMP-9(A), 100 μM compound, in words
  inhibitory effect on enzymatic activity: strong inhibition
[2]; MMP-9(A), substrate ES001 4.0 µM, 0.1 M Hepes pH 7.5, 37°C, 1.0% DMSO, Ki from IC50 (Eqn. 3), read-out: Ki ± s.d. (converted)
  Ki: 560 nM
[2]; rMMP-9 (APMA activated), inhibitor 10 μM, average over 0, 15, 30 min preincubation
  vi/v0 Av (bar diagram figure 7): 0.02111
[2]; rMMP-9 (APMA activated), inhibitor 10 μM, preincubation 0 min
  vi/v0 (relative enzyme activity with inhibitor), single determinations: 0.0222 and 0.02292 and 0.01955 and 0.01797
[2]; rMMP-9 (APMA activated), inhibitor 10 μM, preincubation 15 min
  vi/v0 (relative enzyme activity with inhibitor), single determinations: 0.02548 and 0.02093 and 0.0213 and 0.0234
[2]; rMMP-9 (APMA activated), inhibitor 10 μM, preincubation 30 min
  vi/v0 (relative enzyme activity with inhibitor), single determinations: 0.01792 and 0.01966 and 0.0206 and 0.02139
[2]; read-out: vi/v0 (single replicate), rMMP-9 (APMA activated), no preincubation
  remaining activity at 10 µM: 2.22%
[2]; read-out: vi/v0 avg, rMMP-9 (APMA activated), no preincubation
  remaining activity at 10 µM: 2.07%
[3]; 0.25 h, MMP-14, 15 min pre incubation, read-out: vi/v0 (single replicate)
  remaining activity at 10 µM: 16.5%
[3]; 0.25 h, MMP-14, 15 min pre incubation, read-out: vi/v0 avg
  remaining activity at 10 µM: 16%
[3]; 0.5 h, MMP-14, 30 min pre incubation, read-out: vi/v0 (single replicate)
  remaining activity at 10 µM: 14.6%
[3]; 0.5 h, MMP-14, 30 min pre incubation, read-out: vi/v0 avg
  remaining activity at 10 µM: 14.7%
[3]; MMP-14, no preincubation, read-out: vi/v0 (single replicate)
  remaining activity at 10 µM: 14.5%
[3]; MMP-14, no preincubation, read-out: vi/v0 avg
  remaining activity at 10 µM: 17.8%
[3]; MMP-14, 100 μM compound, in words
  inhibitory effect on enzymatic activity: strong inhibition
[3]; MMP-14, inhibitor 10 μM, average over 0, 15, 30 min preincubation
  vi/v0 Av (bar diagram figure 7): 0.1603
[3]; MMP-14, inhibitor 10 μM, preincubation 0 min
  vi/v0 (relative enzyme activity with inhibitor), single determinations: 0.1454 and 0.1797 and 0.2098
[3]; read-out: Ki ± s.d. (converted)
  Ki: 3000 nM
[4]
  Ki: 10 nM
[5]; TLN, 100 μM compound, in words
  inhibitory effect on enzymatic activity: strong inhibition
[5]; [9]
  vi/v0 before correction of kurve: 0
  vi/v0 corrected (v0 is the average of log -10 to log -7): 0
[5]; TLN, log [H2] (M) -4, replicates, read-out: vi/v0 before correction of kurve
  remaining activity at 100 µM: 0%
[5]; TLN, log [H2] (M) -4, replicates, read-out: vi/v0 corrected (v0 is the average of log -10 to log -7)
  remaining activity at 100 µM: 0%
[5]; [10]
  remaining activity at 10 µM: 28.2%
  remaining activity at 0.1 µM: 99.7%
  remaining activity at 0.01 µM: 102%
  remaining activity at 0.0001 µM: 95%
[5]; [11]
  remaining activity at 10 µM: 28.1%
  remaining activity at 0.1 µM: 99.5%
  remaining activity at 0.01 µM: 102%
  remaining activity at 0.0001 µM: 94.8%
[5]; Thermolysin (TLN), inhibitor 10 μM, average over 0, 15, 30 min preincubation
  vi/v0 Av (bar diagram figure 7): 0.2888
[5]; Thermolysin (TLN), inhibitor 10 μM, preincubation 0 min
  vi/v0 (relative enzyme activity with inhibitor), single determinations: 0.2407 and 0.2992 and 0.3158 and 0.3218
[5]; 15 min pre incubation
  vi/v0 avg (time dependent inhibition, Supplementary Figure S8): 0.1753
[5]; 30 min pre incubation
  vi/v0 avg (time dependent inhibition, Supplementary Figure S8): 0.294
[5]; No preincubation
  vi/v0 avg (time dependent inhibition, Supplementary Figure S8): 0.2944
[5]; read-out: Ki ± s.d.
  Ki: 2500 nM
[6]
  Ki: 80000 nM
[6]; 0.25 h, read-out: vi/v0 (single replicate), Aureolysin, 15 min pre incubation
  remaining activity at 100 µM: 45.5%
[6]; 0.25 h, read-out: vi/v0 avg, Aureolysin, 15 min pre incubation
  remaining activity at 100 µM: 41.5%
[6]; 0.5 h, read-out: vi/v0 (single replicate), Aureolysin, 30 min pre incubation
  remaining activity at 100 µM: 39.1%
[6]; 0.5 h, read-out: vi/v0 avg, Aureolysin, 30 min pre incubation
  remaining activity at 100 µM: 39.4%
[6]; ALN, 100 μM compound, in words
  inhibitory effect on enzymatic activity: strong inhibition
[6]; Aureolysin (ALN), inhibitor 100 μM, average over 0, 15, 30 min preincubation
  vi/v0 Av (bar diagram figure 7): 0.4117
[6]; Aureolysin (ALN), inhibitor 100 μM, preincubation 0 min
  vi/v0 (relative enzyme activity with inhibitor), single determinations: 0.4244 and 0.4426 and 0.4113 and 0.3677
[6]; Aureolysin (ALN), inhibitor 100 μM, preincubation 15 min
  vi/v0 (relative enzyme activity with inhibitor), single determinations: 0.4549 and 0.4344 and 0.3957 and 0.4144
[6]; Aureolysin (ALN), inhibitor 100 μM, preincubation 30 min
  vi/v0 (relative enzyme activity with inhibitor), single determinations: 0.3912 and 0.406 and 0.3859
[6]; read-out: vi/v0 (single replicate), Aureolysin, no preincubation
  remaining activity at 100 µM: 42.4%
[6]; read-out: vi/v0 avg, Aureolysin, no preincubation
  remaining activity at 100 µM: 41.1%
[7]
  Ki: 40000 nM
[7]; 0.25 h, read-out: vi/v0 (single replicate), Pseudolysin, 15 min pre incubation
  remaining activity at 100 µM: 29.3%
[7]; 0.25 h, read-out: vi/v0 avg, Pseudolysin, 15 min pre incubation
  remaining activity at 100 µM: 29.7%
[7]; 0.5 h, read-out: vi/v0 avg, Pseudolysin, 30 min pre incubation
  remaining activity at 100 µM: 28.3%
[7]; PLN, 100 μM compound, in words
  inhibitory effect on enzymatic activity: strong inhibition
[7]; Pseudolysin (PLN), inhibitor 100 μM, average over 0, 15, 30 min preincubation
  vi/v0 Av (bar diagram figure 7): 0.3295
[7]; Pseudolysin (PLN), inhibitor 100 μM, preincubation 0 min
  vi/v0 (relative enzyme activity with inhibitor), single determinations: 0.3705 and 0.2811 and 0.5391
[7]; Pseudolysin (PLN), inhibitor 100 μM, preincubation 15 min
  vi/v0 (relative enzyme activity with inhibitor), single determinations: 0.293 and 0.3019
[7]; read-out: vi/v0 avg, Pseudolysin, no preincubation
  remaining activity at 100 µM: 39.7%
[8]; RRS enantiomer
  Ki: 386 nM
[8]; RSS enantiomer
  Ki: 90 nM
[8]; previously reported
  Ki: 40 nM
